Measured values taken from ChEMBL document CHEMBL1140018, “Synthesis and structure-activity relationship of imidazo(1,2-a)thieno(3,2-e)pyrazines as IKK-beta inhibitors” (Bioorg Med Chem Lett, 2007).

Legend:
[1] = target: T1, Inhibitor of nuclear factor kappa-B kinase subunit alpha (Homo sapiens, UniProt O15111)
T1 sequence (O15111 whole entry): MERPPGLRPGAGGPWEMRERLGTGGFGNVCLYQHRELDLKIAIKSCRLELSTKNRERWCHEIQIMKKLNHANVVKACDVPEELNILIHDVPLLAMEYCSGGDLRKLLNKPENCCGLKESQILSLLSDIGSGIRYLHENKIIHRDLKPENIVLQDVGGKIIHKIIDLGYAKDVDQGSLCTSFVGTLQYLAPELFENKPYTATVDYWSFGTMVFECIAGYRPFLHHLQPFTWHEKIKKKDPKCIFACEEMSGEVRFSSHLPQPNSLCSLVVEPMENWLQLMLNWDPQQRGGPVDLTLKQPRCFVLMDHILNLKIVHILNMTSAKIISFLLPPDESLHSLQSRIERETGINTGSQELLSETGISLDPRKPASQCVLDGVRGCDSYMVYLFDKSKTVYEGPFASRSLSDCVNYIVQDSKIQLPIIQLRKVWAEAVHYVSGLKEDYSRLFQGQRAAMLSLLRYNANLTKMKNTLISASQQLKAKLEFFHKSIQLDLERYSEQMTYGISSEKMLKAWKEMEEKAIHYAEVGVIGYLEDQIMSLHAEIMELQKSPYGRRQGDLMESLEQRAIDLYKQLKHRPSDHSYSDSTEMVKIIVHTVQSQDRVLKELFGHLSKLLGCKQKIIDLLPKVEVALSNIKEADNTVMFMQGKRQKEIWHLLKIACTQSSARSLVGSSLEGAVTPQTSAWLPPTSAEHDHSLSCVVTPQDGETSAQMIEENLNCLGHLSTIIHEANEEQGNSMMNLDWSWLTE

[2] = tested on: Jurkat; experiment: Inhibition of TNF-alpha-induced response in Jurkat cells; conditions: Homo sapiens
[3] = target: T2, Inhibitor of nuclear factor kappa-B kinase subunit beta (Homo sapiens, UniProt O14920)
T2 sequence (O14920 whole entry): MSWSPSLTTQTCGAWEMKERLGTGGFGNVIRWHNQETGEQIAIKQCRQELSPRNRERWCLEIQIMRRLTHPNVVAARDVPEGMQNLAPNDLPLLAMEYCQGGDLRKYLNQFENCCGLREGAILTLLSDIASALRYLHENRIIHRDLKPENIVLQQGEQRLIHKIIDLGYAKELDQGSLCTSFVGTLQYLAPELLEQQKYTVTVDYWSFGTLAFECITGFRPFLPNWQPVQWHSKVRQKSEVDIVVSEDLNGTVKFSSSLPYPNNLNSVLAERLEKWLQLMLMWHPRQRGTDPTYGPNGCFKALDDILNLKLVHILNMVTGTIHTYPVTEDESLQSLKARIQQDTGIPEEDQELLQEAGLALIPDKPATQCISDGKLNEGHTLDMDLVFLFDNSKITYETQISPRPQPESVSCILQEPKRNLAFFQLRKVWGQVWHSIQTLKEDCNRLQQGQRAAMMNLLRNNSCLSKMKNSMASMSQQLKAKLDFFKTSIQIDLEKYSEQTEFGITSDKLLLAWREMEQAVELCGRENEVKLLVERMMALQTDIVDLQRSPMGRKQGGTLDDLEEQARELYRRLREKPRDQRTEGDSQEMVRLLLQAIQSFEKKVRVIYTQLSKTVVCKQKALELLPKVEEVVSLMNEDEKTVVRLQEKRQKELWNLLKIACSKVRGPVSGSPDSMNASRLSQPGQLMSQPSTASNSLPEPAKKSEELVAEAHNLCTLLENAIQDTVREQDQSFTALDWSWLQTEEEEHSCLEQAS

[4] = Cytotoxicity against Jurkat cells by Alamar blue assay; conditions: human

Compound `CNCCNc1nc2cc3ccccc3cc2n2c(C)cnc12` has an IC50 [1] of 420 nM and an EC50 [2] of 0.85 µM.

In the case of `COc1nc2cc(-c3ccccc3)sc2n2c(C)cnc12`, the IC50 [1] is reported as over 100000 nM, the IC50 [3] is reported as over 1000 nM and the CC50 ([4]; Jurkat cells) is reported as over 100 µM. It also gave an EC50 [2] of over 100 µM.

For `Cc1cnc2c(NCCN)nc3cc(-c4cn[nH]c4)sc3n12`, the IC50 [1] was 1450 nM, the IC50 [3] was 10 nM and the CC50 ([4]; Jurkat cells) was 46 µM. It also gave an EC50 [2] of 8.02 µM.

For `COc1ccccc1-c1cc2nc(NCCN)c3ncc(C)n3c2s1`, the IC50 [1] was 13000 nM, the IC50 [3] was 280 nM and the CC50 ([4]; Jurkat cells) was 3.5 µM. For the same compound, the EC50 [2] was over 100 µM.

`Cc1cnc2c(NCCN)nc3cc(-c4ccncc4)sc3n12` gave an IC50 [1] of 2930 nM, an IC50 [3] of 270 nM and a CC50 ([4]; Jurkat cells) of over 100 µM. For the same compound, the EC50 [2] was 59.6 µM.

Work on `CNc1nc2cc(-c3cccc(CCC(=O)O)c3)sc2n2c(C)cnc12` yielded an IC50 [1] of 1340 nM, an IC50 [3] of under 9 nM and a CC50 ([4]; Jurkat cells) of over 100 µM. It also gave an EC50 [2] of 4.96 µM.

With `Cc1cnc2c(NCCN)nc3cc(-c4cccc(CCO)c4)sc3n12` the IC50 [1] was 910 nM, the IC50 [3] was 21 nM and the CC50 ([4]; Jurkat cells) was 13 µM. It also gave an EC50 [2] of 0.95 µM.

Compound `Cc1cnc2c(NCCN)nc3cc(-c4cccc(CO)c4)sc3n12` has an IC50 [1] of 450 nM, an IC50 [3] of 8 nM and a CC50 ([4]; jurkat) of 7 µM. It also gave an EC50 [2] of 2.4 µM.

`CNc1nc2cc(-c3cccc(CC(N)C(=O)O)c3)sc2n2c(C)cnc12` (configuration not stated) showed an IC50 [1] of 1260 nM, an IC50 [3] of 13 nM and a CC50 ([4]; Jurkat cells) of over 100 µM. It also gave an EC50 [2] of over 100 µM.

With `Cc1cnc2c(NCCN)nc3cc(-c4ccc(CO)cc4)sc3n12` the IC50 [1] was 2330 nM, the IC50 [3] was 23 nM and the CC50 ([4]; Jurkat cells) was 14 µM. It also gave an EC50 [2] of 40.9 µM.

`CNc1nc2cc(-c3cccc(C[C@@H](N)C(N)=O)c3)sc2n2c(C)cnc12` gave an IC50 [1] of 190 nM, an IC50 [3] of 27 nM and a CC50 ([4]; Jurkat cells) of 90 µM. For the same compound, the EC50 [2] was 0.69 µM.

Work on `Cc1cnc2c(NCCO)nc3cc(-c4ccccc4)sc3n12` yielded an IC50 [1] of 3480 nM, an IC50 [3] of 85 nM and a CC50 ([4]; Jurkat cells) of over 100 µM. For the same compound, the EC50 [2] was 7.17 µM.

In the case of `Cc1cnc2c(NCCN)nc3cc(C4=NCN=C4)sc3n12`, the IC50 [1] is reported as 3860 nM, the IC50 [3] is reported as 450 nM and the CC50 ([4]; Jurkat cells) is reported as 38 µM. The EC50 [2] was over 100 µM.

`COc1ccc(-c2cc3nc(NCCN)c4ncc(C)n4c3s2)cc1` showed an IC50 [1] of 2800 nM, an IC50 [3] of 95 nM and a CC50 ([4]; Jurkat cells) of over 100 µM. The EC50 [2] was over 30 µM.

With `Cc1cnc2c(NCCN)nc3cc(-c4cccnc4)sc3n12` the IC50 [1] was 2570 nM, the IC50 [3] was 140 nM and the CC50 ([4]; Jurkat cells) was 49 µM. For the same compound, the EC50 [2] was 29.5 µM.

`CNc1nc2cc(C)sc2n2c(C)cnc12` gave an IC50 [1] of 7830 nM, an IC50 [3] of 490 nM and a CC50 ([4]; Jurkat cells) of over 100 µM. It also gave an EC50 [2] of over 30 µM.

`CNc1nc2cc(-c3cccc(CCNC(C)=O)c3)sc2n2c(C)cnc12` gave an IC50 [1] of 820 nM, an IC50 [3] of 21 nM and a CC50 ([4]; Jurkat cells) of over 100 µM. It also gave an EC50 [2] of 1.97 µM.

`Cc1cnc2c(NCCN)nc3cc(-c4ccoc4)sc3n12` gave an IC50 [1] of 940 nM, an IC50 [3] of 29 nM and a CC50 ([4]; Jurkat cells) of over 100 µM. The EC50 [2] was 4.53 µM.

For `Cc1cnc2c(NCCN)nc3cc(-c4ccc[nH]4)sc3n12`, the IC50 [1] was 1260 nM, the IC50 [3] was 250 nM and the CC50 ([4]; Jurkat cells) was 7.9 µM. For the same compound, the EC50 [2] was 7.96 µM.

Work on `Cc1cnc2c(N)nc3cc(-c4ccccc4)sc3n12` yielded an IC50 [1] of 6500 nM, an IC50 [3] of 370 nM and a CC50 ([4]; Jurkat cells) of over 100 µM. The EC50 [2] was 17 µM.

For `CNc1nc2cc(-c3cccc(CNCC(N)=O)c3)sc2n2c(C)cnc12`, the IC50 [1] was 510 nM, the IC50 [3] was 23 nM and the CC50 ([4]; Jurkat cells) was over 100 µM. The EC50 [2] was 2.61 µM.

In the case of `CNc1nc2ccsc2n2c(C)cnc12`, the IC50 [1] is reported as 4120 nM, the IC50 [3] is reported as 520 nM and the CC50 ([4]; Jurkat cells) is reported as over 100 µM. The EC50 [2] was over 3 µM.

`Cc1cnc2c(NCCN)nc3ccsc3n12` showed an IC50 [1] of 12100 nM, an IC50 [3] of 170 nM and a CC50 ([4]; Jurkat cells) of over 100 µM. The EC50 [2] was over 100 µM.

Compound `Cc1cnc2c(NCCN)nc3cc(-c4nccs4)sc3n12` has an IC50 [1] of 1110 nM, an IC50 [3] of 230 nM and a CC50 ([4]; Jurkat cells) of 5.9 µM. It also gave an EC50 [2] of 18.6 µM.

Compound `CC(=O)NCCNc1nc2cc(-c3ccccc3)sc2n2c(C)cnc12` has an IC50 [1] of 7030 nM, an IC50 [3] of 290 nM and a CC50 ([4]; Jurkat cells) of over 100 µM. It also gave an EC50 [2] of 10.2 µM.

Compound `CNC(=O)CNCCc1cccc(-c2cc3nc(NC)c4ncc(C)n4c3s2)c1` has an IC50 [1] of 1080 nM, an IC50 [3] of 51 nM and a CC50 ([4]; Jurkat cells) of 50 µM. The EC50 [2] was 1.9 µM.
